Holding throughout (assay): inhibition of tumour cell growth, NCI panel, 48 h
Experiment [1] relates to 786-0 renal.
Experiment [2] has as its system A549 NSCLC.
The test system of experiment [3] is ACHN renal.
Experiment [4] has as its system MALME-3M melanoma.
Experiment [5] has as its system NCI-H522 lung.
The subject of experiment [6] is RXF 393 renal.
Experiment [7] relates to SF-539 CNS.
In experiment [8] the test system is SK-MEL-2 melanoma.
In experiment [9] the test system is SK-OV-3 ovarian.
Experiment [10] deals with UACC-62 melanoma.

“And” between values parts separate entries of the source, which are not always exact repeats. Equal values may be shown once.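 Test compounds were applied to cells in 96-well plates for 48 hours at 5 doses. The concentration for 50% growth inhibition is given as GI50. TGI: concentration producing complete growth inhibition.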 Some results are limits rather than exact numbers.

For `CCCCCCCCCCCCCCCCCCNC(=O)[C@H]1CSC(c2cccs2)N1` (some centres undefined), the GI50 was 1.13 µM in experiment [1]; 1.69 µM in experiment [2]; 30.9 µM in [3]; 0.988 µM in experiment [4]; 3.59 µM in experiment [5]; 0.973 µM in experiment [6]. Further, the GI50 in [7] is 1.71 µM; in experiment [8] it was 0.957 µM; in experiment [9], 4.51 µM; in experiment [10], 0.908 µM. Moreover, the TGI in experiment [1] is 2.49 µM; in [2], above 50 µM; in experiment [3] it was above 50 µM; in [4] it was 2.01 µM; in experiment [5], above 50 µM; in experiment [6], 1.72 µM. The TGI in experiment [7] was 7.85 µM; in experiment [8] it was 1.79 µM; in experiment [9] it was 18.3 µM; in [10], 1.69 µM.

On to `OC(c1ccc(Br)cc1)(c1cccs1)C1CC1` (centres undefined), for which the TGI was 36 µM in experiment [1]; above 100 µM in experiment [2]; 76.3 µM in experiment [3]; 41.5 µM in experiment [4]; 40.9 µM in experiment [5]; 39.1 µM in experiment [6]. For the same compound, the TGI in experiment [7] was 45.9 µM; in [8], 40.4 µM; in experiment [9], above 100 µM; in [10], 33.3 µM.

In the case of `NC(=O)C1(N2CCCCC2)CCN(CCCC(=O)c2ccc(F)cc2)CC1`, the GI50 was 4.59 µM in experiment [1]; 10.4 µM in [2]; 12.2 µM in experiment [3]; 0.264 µM in [4]; 0.0965 µM in experiment [5]; 2.32 µM in experiment [6]. Further, the GI50 in experiment [7] is 1.42 µM; in experiment [8], 0.0925 µM; in experiment [9], 3.26 µM; in [10], 0.219 µM. Also, the TGI was 43.2 µM in experiment [1]; above 100 µM in experiment [2]; above 100 µM in experiment [3]; above 100 µM in experiment [4]; 7.38 µM in [6]; 13.6 µM in experiment [7]. Moreover, the TGI in experiment [8] is above 100 µM; in experiment [9], 35.3 µM; in [10] it was above 100 µM.

Take `CSc1c(C)c(C)nn1-c1ccccc1`: the TGI in [1], in experiment [2], in [3], in experiment [4], in experiment [5] and in experiment [6] was above 100 µM throughout. Besides, the TGI in experiment [7], in experiment [8], in experiment [9] and in [10] was above 100 µM in each case.

In the case of `Cn1cc(-c2csc(-c3cn(C)c4ccccc34)n2)c2cnccc21`, the GI50 was 1.95 µM in [1]; 2.38 µM in experiment [2]; 1.8 µM in experiment [3]; 2.01 µM in experiment [4]; 2 µM in experiment [5]; 1.7 µM in [6]. Further, the GI50 in experiment [7] was 1.75 µM; in experiment [8] it was 2 µM; in [9], 2.52 µM; in [10] it was 1.72 µM. Further, the TGI in [1] came to 3.53 µM; in experiment [2] it was 5.01 µM; in experiment [3], 3.19 µM; in experiment [4] it was 3.61 µM; in experiment [5] it was 3.84 µM; in [6] it was 3.28 µM. The TGI worked out at 3.2 µM in experiment [7], 3.7 µM in [8], 6.33 µM in experiment [9] and 3.25 µM in experiment [10].

Take `CC(=O)NNc1nc(C)c(C(=O)NNC(=O)C(=O)Nc2nc3ccc([N+](=O)[O-])cc3s2)s1`: the TGI in experiment [1] was above 100 µM; in experiment [2], above 100 µM; in experiment [3], above 100 µM; in experiment [4] it was above 100 µM; in experiment [5], 61.4 µM; in experiment [6] it was above 95.6 µM. Besides, the TGI in experiment [7], in experiment [8], in experiment [9] and in experiment [10] was above 100 µM throughout.

Regarding `CCSc1nc(N)c2cn[nH]c2n1`, the GI50 was 40.2 µM in [1]; 44.6 µM in [2]; 31.3 µM in experiment [3]; 31.2 µM in experiment [4]; 62 µM in experiment [5]; 13.3 µM in [6]. Moreover, the GI50 in experiment [7] was 43.6 µM; in [8], 47.3 µM; in experiment [9], 42.1 µM; in [10] it was 18 µM. Moreover, the TGI in experiment [1] was above 100 µM; in experiment [2], above 100 µM; in experiment [3], above 100 µM; in [4] it was 67 µM; in [5] it was above 100 µM; in [6] it was 35.5 µM. Further, the TGI was above 100 µM in experiment [7], above 100 µM in experiment [8], above 100 µM in experiment [9] and 38.9 µM in experiment [10].

As for `CC1CCCc2c1nn(C(=O)/C=C(\N)c1ccccc1)c2N` (centres undefined), the GI50 in experiment [1] was 16.2 µM; in experiment [2] it was 9.06 µM; in [3], 9.94 µM; in [4], 9.4 µM; in [5], 13.6 µM; in experiment [6] it was 31.3 µM. The GI50 in experiment [7] is 17.7 µM; in [8], 34.8 µM; in experiment [9], 14.5 µM; in experiment [10] it was 9.45 µM. Also, the TGI in [1] is above 100 µM; in [2], above 100 µM; in experiment [3] it was above 100 µM; in [4], above 100 µM; in experiment [5], 61.7 µM; in experiment [6], above 100 µM. Besides, the TGI was above 100 µM in [7], above 100 µM in [8], above 100 µM in experiment [9] and 41.5 µM in experiment [10].

`O=C1C(SCCO)=C(SCCO)C(=O)c2ccccc21`: the TGI in [1] is 3.91 µM; in experiment [2], 3.7 µM; in experiment [3], 2.26 µM; in experiment [4], 2.85 µM; in [5], 3.56 µM; in experiment [6], 2.8 µM. The TGI in experiment [7] amounted to 2.02 µM; in [8], 4.24 µM; in experiment [9], 3.08 µM; in experiment [10], 2.84 µM.

Consider `CCN(CC)CCNC(=O)c1cn2ncnc(Oc3ccc(NC(=O)Nc4ccc(Cl)c(C(F)(F)F)c4)c(F)c3)c2c1C`, for which the GI50 in experiment [1] was 1.95 µM; in experiment [2] it was 1.77 µM; in experiment [3], 1.68 µM; in [4], 1.15 µM; in experiment [5] it was 2.03 µM; in experiment [6] it was 1.8 µM. The GI50 in experiment [7] is 1.12 µM; in experiment [8], 1.61 µM; in [9] it was 1.66 µM; in experiment [10], 1.68 µM. The TGI worked out at 3.69 µM in [1]; 3.44 µM in experiment [2]; 3.04 µM in experiment [3]; 2.55 µM in experiment [4]; 4.13 µM in experiment [5]; 3.35 µM in [6]. The TGI in experiment [7] was 2.43 µM; in [8], 3.3 µM; in [9], 3.26 µM; in [10], 3.15 µM.

As for `O=C/C(=C(/Cl)c1ccc(O)cc1)c1ccccc1`, the TGI in experiment [1] is above 66.3 µM; in experiment [2] it was above 84.6 µM; in [3] it was 50.2 µM; in experiment [4], 70.4 µM; in [5], 26.1 µM; in [6], 57.2 µM. Moreover, the TGI is above 57.1 µM in [7], 81.6 µM in experiment [8], 85.8 µM in [9] and 22 µM in [10].

In the case of `O=C(O)CCC(NC(=S)S)C(=O)O.[Na+].[Zn+2]` (centres undefined), the GI50 in experiment [1], in experiment [2], in [3], in [4], in [5] and in [6] was above 50 µM throughout. Moreover, the GI50 in [7], in experiment [8], in [9] and in experiment [10] was above 50 µM in each case. Further, the TGI in experiment [1], in [2], in experiment [3], in experiment [4], in experiment [5] and in experiment [6] was above 50 µM in each case. Also, the TGI in [7], in experiment [8], in [9] and in experiment [10] was above 50 µM throughout.

For the compound `CNC(=O)c1cc2c(Oc3ccc(NC(=O)C4(C(=O)Nc5ccc(F)cc5)CC4)cc3)ccnc2cc1OC`, the GI50 in experiment [1] was 3.46 µM; in experiment [2], 2.82 µM; in [3] it was 2.31 µM; in experiment [4], 1.66 µM; in [5], 2.51 µM; in experiment [6] it was 1.58 µM. Also, the GI50 in experiment [7] was 0.463 µM; in experiment [8] it was 2.02 µM; in experiment [9], 2.94 µM; in experiment [10], 1.54 µM. Also, the TGI was above 100 µM in experiment [1]; 16.9 µM in experiment [2]; above 100 µM in [3]; 9.45 µM in experiment [4]; above 100 µM in experiment [5]; 3.53 µM in experiment [6]. Also, the TGI in experiment [7] was found to be 6.56 µM; in experiment [8], 5.92 µM; in experiment [9], 9.33 µM; in [10] it was 15 µM.

On to `O=C(c1ccc2ccccc2c1)c1c(C(F)(F)F)n([O-])c2ccc(Cl)cc2[n+]1=O`, for which the GI50 was 1.64 µM in experiment [1]; 1.71 µM in experiment [2]; 1.63 µM in [3]; 1.59 µM in [4]; 1.61 µM in experiment [5]; 0.425 µM in experiment [6]. Further, the GI50 in [7] was 1.58 µM; in experiment [8], 1.74 µM; in [9], 1.75 µM; in experiment [10] it was 1.71 µM. Also, the TGI in [1] turned out to be 3.09 µM; in [2] it was 3.21 µM; in experiment [3], 2.98 µM; in [4], 3.2 µM; in experiment [5] it was 3.02 µM; in experiment [6] it was 1.4 µM. Moreover, the TGI in [7] was 2.92 µM; in experiment [8] it was 3.2 µM; in [9], 3.13 µM; in [10] it was 3.08 µM.

As for `Cc1nc(Nc2n[nH]c3c2CN(C(=O)N[C@H](CN(C)C)c2ccccc2)C3(C)C)c2sccc2n1`, the GI50 in [1] is 0.281 µM and 0.82 µM; in [2], 0.0911 µM and 0.291 µM; in experiment [3], 0.432 µM and 0.337 µM; in experiment [4] it was 0.0473 µM and < 0.01 µM; in [5] it was < 0.0168 µM and 0.0398 µM; in experiment [6], 0.143 µM and 0.751 µM. The GI50 is 0.382 µM and 0.149 µM in experiment [7]; 0.0211 µM and 0.0149 µM in experiment [8]; 0.317 µM and 0.205 µM in experiment [9]; 0.00487 µM and < 0.01 µM in [10]. Also, the TGI in [1] was 4.75 µM and 4.45 µM; in experiment [2] it was above 50.9 µM; in [3], above 75 µM; in experiment [4], 0.497 µM and 2.44 µM; in experiment [5], 2.28 µM and 2.74 µM; in experiment [6], 1.89 µM and 2.53 µM. Further, the TGI in experiment [7] was 3.68 µM and 2.98 µM; in experiment [8], 1.01 µM and 2.8 µM; in experiment [9], > 5.94 µM and 14.7 µM; in experiment [10], 0.154 µM.

As for `CC(=O)[CH-]C(C)=O.[CH2-]C.[CH2-]C.[Tl+3]`, the GI50 in [1], in experiment [2], in experiment [3], in [4], in [5] and in [6] was above 100 µM each time. Further, the GI50 in experiment [7], in experiment [8], in experiment [9] and in [10] was above 100 µM throughout. Moreover, the TGI in experiment [1], in [2], in experiment [3], in experiment [4], in experiment [5] and in [6] was above 100 µM each time. Further, the TGI in [7], in [8], in experiment [9] and in experiment [10] was above 100 µM in each case.

Consider `Cc1ccccc1Nc1nc2c(s1)C(=O)c1ccccc1C2=O`, for which the TGI was determined as 8.47 µM in [1]; 27.9 µM in experiment [2]; 14.6 µM in [3]; 28.2 µM in experiment [4]; 7.52 µM in experiment [5]; 19.3 µM in [6]. In addition, the TGI in [7] is 12.7 µM; in experiment [8], 31.5 µM; in experiment [9], 38 µM; in experiment [10] it was 10.3 µM.

The record behind these values is PubChem BioAssay (NCI).
